Experimental data from patent publication US8962687B2, “Method of treating liver disorders” (priority 2012, dated 2015).
Entries after “also recorded” stand apart in the source; their conditions may differ.

Key:
Type in all cases: in vivo, C57BL/6 mice
[1] = tested on: STAM mice; assay: Sirius red staining, fibrosis area in STAM model; details: for fibrosis area (Sirius red-positive area): mean±SD
Procedure: For HE staining, sections were cut from paraffin blocks of left lateral liver tissue prefixed in Bouin's solution and stained with Lillie-Mayer's Hematoxylin (Muto Pure Chemicals, Japan) and eosin solution (Wako Pure Chemical Industries). NAS was calculated according to the criteria of Kleiner (Kleiner D E. et al., Hepatology, 2005; 41:1313). To visualize collagen deposition, Bouin's fixed left lateral liver sections were stained using picro-Sirius red solution (Waldeck, Germany). For quantitative analysis of fibrosis area, inflammation area, and semi-quantification of α-SMA, bright field images of Sirius red-stained, F4/80 and α-SMA-immunostained sections were captured around the central vein using a digital camera (DFC280; Leica, Germany) at 200-fold magnification, and the positive areas in 5 fields/section were measured using ImageJ software (National Institute of Health, USA).

[2] = tested on: STAM mice; assay: HE staining and NAFLD Activity Score (NAS) in STAM model of NASH; set-up: key to NAS (mean ± SD): NAFLD Activity Score per Kleiner et al. 2005 criteria; details: for Steatosis score 1, number of mice: score 1 = 5-33%; for Lobular inflammation score 1, number of mice: score 1 = <2 foci/200x; for Hepatocyte ballooning score 1, number of mice: score 1 = Few balloon cells; for Lobular inflammation score 2, number of mice: score 2 = 2-4 foci/200x; for Hepatocyte ballooning score 2, number of mice: score 2 = Many cells/prominent ballooning; for Hepatocyte ballooning score 0, number of mice: score 0 = None
Procedure: STAM™ is a model for non-alcoholic steatohepatitis (NASH), symtoms thereof, and related liver disorders, created by the combination of chemical and dietary interventions in C57BL/6 mice. […] For HE staining, sections were cut from paraffin blocks of left lateral liver tissue prefixed in Bouin's solution and stained with Lillie-Mayer's Hematoxylin (Muto Pure Chemicals, Japan) and eosin solution (Wako Pure Chemical Industries). NAS was calculated according to the criteria of Kleiner (Kleiner D E. et al., Hepatology, 2005; 41:1313). To visualize collagen deposition, Bouin's fixed left lateral liver sections were stained using picro-Sirius red solution (Waldeck, Germany).

[3] = tested on: TIMP-1 mRNA; assay: Quantitative RT-PCR of liver, TIMP-1; details: relative, mean±SD
Procedure: (§1) Total RNA was extracted from liver samples using RNAiso (Takara Bio, Japan) according to the manufacturer's instructions. One μg of RNA was reverse-transcribed using a reaction mixture containing 4.4 mM MgCl2 (Roche, Switzerland), 40 U RNase inhibitor (Toyobo, Japan), 0.5 mM dNTP (Promega, USA), 6.28 μM random hexamer (Promega), 5× first strand buffer (Promega), 10 mM dithiothreitol (Invitrogen) and 200 U MMLV-RT (Invitrogen) in a final volume of 20 μL. The reaction was carried out for 1 hour at 37° C., followed by 5 minutes at 99° C. Real-time PCR was performed using real-time PCR DICE and SYBR premix Taq (Takara Bio). To calculate the relative mRNA expression level, the expression of each gene was normalized to that of reference gene 36B4 (gene symbol: Rp1p0). Information of PCR-primer sets and the plate layout was described in Table 1.

[4] = tested on: MCP-1 mRNA; assay: Quantitative RT-PCR of liver, MCP-1; details: relative, normalized to 36B4, 30 mg/kg oral once daily, 6-9 wks (MN-001-middle group), mean±SD
Procedure: as §1

[5] = tested on: STAM mice; assay: F4/80 immunostaining, inflammation area in STAM model; details: mean±SD
Procedure: (§2) For immunohistochemistry, sections were cut from frozen left lateral liver tissues embedded in Tissue-Tek O.C.T. compound and fixed in acetone. Endogenous peroxidase activity was blocked using 0.03% H2O2 for 5 minutes, followed by incubation with Block Ace (Dainippon Sumitomo Pharma, Japan) for 10 minutes. The sections were incubated with a 200-fold dilution of anti-α-SMA (Epitomics, USA) or anti-F4/80 antibody (BMA Biomedicals, Switzerland) 1 hour at room temperature. […] For quantitative analysis of fibrosis area, inflammation area, and semi-quantification of α-SMA, bright field images of Sirius red-stained, F4/80 and α-SMA-immunostained sections were captured around the central vein using a digital camera (DFC280; Leica, Germany) at 200-fold magnification, and the positive areas in 5 fields/section were measured using ImageJ software (National Institute of Health, USA).

[6] = tested on: STAM mice; assay: Liver hydroxyproline content in STAM model; details: mean±SD
Procedure: To quantify liver hydroxyproline content, frozen liver samples (32-40 mg) were processed by an alkaline-acid hydrolysis method as follows. Liver samples were defatted with 100% acetone, dried in the air, dissolved in 2N NaOH at 65° C., and autoclaved at 121° C. for 20 minutes. The lysed samples (400 μL) were acid-hydrolyzed with 400 μL of 6N HCl at 121° C. for 20 minutes, and neutralized with 400 μL of 4N NaOH containing 10 mg/mL activated carbon. AC buffer (2.2M acetic acid/0.48M citric acid, 400 μL) was added to the samples, followed by centrifugation to collect the supernatant. A standard curve of hydroxyproline was constructed with serial dilutions of trans-4-hydroxy-L-proline (Sigma-Aldrich) starting at 16 μg/mL. The prepared samples and standards (each 400 μL) were mixed with 400 μL chloramine T solution (Wako Pure Chemical Industries) and incubated for 25 minutes at room temperature. […] After samples were cooled on ice and centrifuged to remove precipitates, the optical density of each supernatant was measured at 560 nm. The concentrations of hydroxyproline were calculated from the hydroxyproline standard curve. Protein concentrations of liver samples were determined using a BCA protein assay kit (Thermo Fisher Scientific, USA) and used to normalize the calculated hydroxyproline values. Liver hydroxyproline levels were expressed as μg per mg protein.

[7] = tested on: STAM mice; assay: Whole blood glucose and plasma ALT/AST in STAM model; details: mean±SD; for Whole blood glucose: non-fasting
Procedure: Non-fasting blood glucose was measured in whole blood using […], Japan). For plasma biochemistry, blood was collected in polypropylene tubes with anticoagulant (Novo-Heparin, Mochida Pharmaceutical, Japan) and centrifuged at 1,000×g for 15 minutes at 4° C. The supernatant was collected and stored at -80° until use. Plasma ALT and AST levels were measured by FUJI DRI-CHEM 7000 (Fujifilm, Japan).

[8] = tested on: STAM mice; assay: Liver weight and liver-to-body weight ratio in STAM model; details: mean±SD
Procedure: NASH was induced in 50 male mice by a single subcutaneous injection of 200 μg streptozotocin (STZ, Sigma-Aldrich, USA) solution 2 days after birth and feeding with high fat diet (HFD, 57 kcal % fat, cat#: HFD32, CLEA Japan, Japan) after 4 weeks of age. Ten male littermates, fed with normal diet and without STZ treatment, were used for the normal group. Vehicle, MN-001, and Telmisartan were administered by oral route in a volume of 10 mL/kg. MN-001 was administered at doses of 10, 30, and 100 mg/kg once daily. Telmisartan was administered at dose of 10 mg/kg once daily.

[9] = tested on: TNF-α mRNA; assay: Quantitative RT-PCR of liver, TNF-α; details: relative, mean±SD
Procedure: as §1

[10] = tested on: STAM mice; assay: Alpha-SMA immunostaining in STAM model; details: mean±SD
Procedure: as §2

[11] = tested on: Alpha-SMA mRNA; assay: Quantitative RT-PCR of liver, Alpha-SMA; details: relative, mean±SD
Procedure: as §1

[12] = tested on: CCR2 mRNA; assay: Quantitative RT-PCR of liver, CCR2; details: relative, mean±SD
Procedure: as §1

[13] = 10 mg/kg oral once daily, 6-9 wks of age (MN-001-low; Telmisartan groups)
[14] = 30 mg/kg oral once daily, 6-9 wks of age (MN-001-middle group)
[15] = 100 mg/kg oral once daily, 6-9 wks of age (MN-001-high group)
[16] = 10 mg/kg oral once daily, 6-9 wks, n 10
[17] = 30 mg/kg oral once daily, 6-9 wks, n 10
[18] = 100 mg/kg oral once daily, 6-9 wks, n 10
[19] = normalized to 36B4, 100 mg/kg oral once daily, 6-9 wks (MN-001-high group)
[20] = normalized to 36B4, 10 mg/kg oral once daily, 6-9 wks (MN-001-low; Telmisartan groups)
[21] = normalized to 36B4, 30 mg/kg oral once daily, 6-9 wks (MN-001-middle group)

What does the source list for `CCCc1c(SCCCOc2ccc(C(C)=O)c(OCCCC(=O)O)c2CCC)ccc(C(C)=O)c1O` [MN-001]?
fibrosis area (Sirius red-positive area) [1, 13]: 0.76±0.19%; fibrosis area (Sirius red-positive area) [1, 14]: 0.76±0.16%; fibrosis area (Sirius red-positive area) [1, 15]: 0.69±0.18%; fibrosis area compared with Vehicle ([1]; MN-001 treatment groups together (10, 30, 100 mg/kg oral once daily, 6-9 wks), dose dependent manner): significantly reduced; also recorded: significantly decreased; NAS (mean ± SD) [2, 13]: 4.7±0.5; hepatocellular ballooning, HE-stained liver sections, compared with Vehicle [2, 13]: moderate decrease; Steatosis score 1, number of mice [2, 16]: 10; Lobular inflammation score 1, number of mice [2, 16]: 1; Hepatocyte ballooning score 1, number of mice [2, 16]: 2; Lobular inflammation score 2, number of mice [2, 16]: 9; Hepatocyte ballooning score 2, number of mice [2, 16]: 8; NAS (mean ± SD) [2, 14]: 4.7±0.5; hepatocellular ballooning, HE-stained liver sections, compared with Vehicle [2, 14]: moderate decrease; Steatosis score 1, number of mice [2, 17]: 10; Hepatocyte ballooning score 1, number of mice [2, 17]: 3; Lobular inflammation score 2, number of mice [2, 17]: 10; Hepatocyte ballooning score 2, number of mice [2, 17]: 7; hepatocellular ballooning, HE-stained liver sections / ballooning score, compared with Vehicle [2, 15]: significantly reduced; also recorded: marked improvements; inflammatory cell infiltration, HE-stained liver sections, compared with Vehicle [2, 15]: moderate improvements; Lobular inflammation score 0, number of mice ([2]; 100 mg/kg oral once daily, 6-9 wks, score 0 = No foci, n 10): 1; Hepatocyte ballooning score 0, number of mice [2, 18]: 2; Steatosis score 1, number of mice [2, 18]: 10; Lobular inflammation score 1, number of mice [2, 18]: 4; Hepatocyte ballooning score 1, number of mice [2, 18]: 7; Lobular inflammation score 2, number of mice [2, 18]: 5; Hepatocyte ballooning score 2, number of mice [2, 18]: 1; TIMP-1 mRNA expression levels [3, 19]: 10.6±5.83; MCP-1 mRNA expression levels [4]: 4.00±7.78; inflammation area (F4/80-positive area) [5, 14]: 6.33±0.84%; inflammation area (F4/80-positive area) [5, 15]: 6.31±0.76%; Liver hydroxyproline content [6, 13]: 0.78±0.34 μg/mg protein; Liver hydroxyproline content [6, 14]: 0.63±0.12 μg/mg protein; Plasma ALT [7, 13]: 71±60 U/L; Plasma ALT [7, 14]: 48±23 U/L; Plasma ALT [7, 15]: 54±11 U/L; Whole blood glucose [7, 13]: 614 ± 98 mg/dL; Whole blood glucose [7, 14]: 609 ± 78 mg/dL; Whole blood glucose [7, 15]: 671 ± 124 mg/dL; Mean liver weight [8, 13]: 1567 ± 165 mg; Mean liver weight [8, 15]: 1480 ± 145 mg; TNF-α mRNA expression levels [9, 20]: 3.42±2.53; TNF-α mRNA expression levels [9, 21]: 7.97±9.30; TNF-α mRNA expression levels [9, 19]: 9.74±3.34; α-SMA-positive area [10, 14]: 0.11±0.04%; Alpha-SMA mRNA expression levels [11, 20]: 36.8±111; Alpha-SMA mRNA expression levels [11, 21]: 3.13±2.52; Alpha-SMA mRNA expression levels [11, 19]: 5.78±3.45; CCR2 mRNA expression levels [12, 19]: 3.86±1.43

Which “hepatocellular ballooning, HE-stained liver sections, compared with Vehicle” value [2, 13] does the source give for `CCCc1nc2c(C)cc(-c3nc4ccccc4n3C)cc2n1Cc1ccc(-c2ccccc2C(=O)O)cc1` [Telmisartan, reference compound] here?
Its value is “marked improvements”.

And the “inflammatory cell infiltration, HE-stained liver sections, compared with Vehicle” value ([2]; 10 mg/kg oral once daily, 6-9 wks of age (Telmisartan group))?
Its value is “marked improvements”.

What about the “Steatosis score 0, number of mice” value ([2]; 10 mg/kg oral once daily, 6-9 wks, score 0 = <5%, n 10) of the same molecule?
Its value is 1.

What about the “Hepatocyte ballooning score 0, number of mice” value [2, 16] of the same molecule?
Its value is 4.

And the “Steatosis score 1, number of mice” value [2, 16]?
Its value is 9.

And the “Lobular inflammation score 1, number of mice” value [2, 16]?
Its value is 10.

What about the “Hepatocyte ballooning score 1, number of mice” value [2, 16] of the same molecule?
The value was 6.

What about the “TIMP-1 mRNA expression levels” value [3, 20] of the same molecule?
The value was 7.82±2.62.

What about the “Plasma AST” value [7, 13] of the same molecule?
The value was 190±28 U/L.

And the “TNF-α mRNA expression levels” value [9, 20]?
Its value is 8.35±2.84.

And the α-SMA-positive area [10, 13]?
Its α-SMA-positive area is 0.12±0.05%.

What about the “CCR2 mRNA expression levels” value [12, 20] of the same molecule?
Its value is 3.21±0.85.
